Reference: publication PMC6009942, “Synthesis and molecular docking studies of some 4-phthalimidobenzenesulfonamide derivatives as acetylcholinesterase and butyrylcholinesterase inhibitors” (Journal of Enzyme Inhibition and Medicinal Chemistry, 2016)

Key:
[1] = biological target: T1, AChE (E.C.3.1.1.7., Type VI-S, from electric eel) (Electrophorus electricus, UniProt O42275); assay: AChE inhibition, modified Ellman colorimetric method; format: biochemical; settings: pH 8.0, 5-min incubation, mean ± SEM of triplicate independent experiments
T1 construct: purchased Sigma-Aldrich (Steinheim, Germany) Type VI-S
From the text: (§1) AChE (E.C.3.1.1.7., Type VI-S, from electric eel) and BuChE (E.C.3.1.1.8., from equine serum) were purchased from Sigma-Aldrich (Steinheim, Germany). 5,5′-Dithiobis(2-nitrobenzoic acid) (DTNB, Ellman’s reagent) acetylthiocholine iodide (AChI) and butyrylthiocholine iodide (BChI) used as substrates were obtained from Fluka. Buffer compounds (potassium dihydrogen phosphate, potassium hydroxide) and sodium hydrogen carbonate were purchased from Merck (Darmstadt, Germany). Spectrophotometric measurements were performed on a Shimadzu 160-A UV-Vis spectrophotometer.
(§2) The inhibitory effects of the synthesized compounds on AChE and BuChE were evaluated using a slightly modified colorimetric method of Ellman et al., with galantamine as the reference compound[41–45]. Prior to use, all solutions were adjusted to 20 °C. Enzyme solution (100 μL) and inhibitor solution (100 μL) were added into a cuvette containing the phosphate buffer (3.0 mL, 0.1 M; pH 8.0). After 5-min incubation, required aliquots of the DTNB solution (100 μL) and of the AChI/BChI (20 μL) were added. After rapid and immediate mixing, the absorption was measured at 412 nm by UV spectroscopy. As a reference, an identical solution of the enzyme without the inhibitor is processed following the same protocol. The blank reading contained 3.0 mL buffer, 200 μL water, 100 μL DTNB and 20 μL substrate. The enzyme activity was determined in the presence of at least five different concentrations of an inhibitor. Each concentration was assayed in triplicate. The samples were investigated immediately after preparation.
(§3) Inhibitory activities of the synthesized compounds against AChE and BuChE were evaluated by modified Ellman method, using galantamine as the reference compound[41–45]. The AChE inhibitory activity was determined by using electric eel acetylcholinesterase and the BuChE inhibitory activity was tested by using equine serum butyrylcholinesterase.

[2] = biological target: T2, BuChE (E.C.3.1.1.8., from equine serum) (Equus caballus, UniProt P81908); assay: BuChE inhibition, modified Ellman colorimetric method; format: biochemical; settings: pH 8.0, 5-min incubation, mean ± SEM of triplicate independent experiments
T2 construct: BuChE (E.C.3.1.1.8., from equine serum); purchased Sigma-Aldrich (Steinheim, Germany); host or cells: equine serum
From the text: as §1, §2, §3

T2 sequence (P81908 whole entry): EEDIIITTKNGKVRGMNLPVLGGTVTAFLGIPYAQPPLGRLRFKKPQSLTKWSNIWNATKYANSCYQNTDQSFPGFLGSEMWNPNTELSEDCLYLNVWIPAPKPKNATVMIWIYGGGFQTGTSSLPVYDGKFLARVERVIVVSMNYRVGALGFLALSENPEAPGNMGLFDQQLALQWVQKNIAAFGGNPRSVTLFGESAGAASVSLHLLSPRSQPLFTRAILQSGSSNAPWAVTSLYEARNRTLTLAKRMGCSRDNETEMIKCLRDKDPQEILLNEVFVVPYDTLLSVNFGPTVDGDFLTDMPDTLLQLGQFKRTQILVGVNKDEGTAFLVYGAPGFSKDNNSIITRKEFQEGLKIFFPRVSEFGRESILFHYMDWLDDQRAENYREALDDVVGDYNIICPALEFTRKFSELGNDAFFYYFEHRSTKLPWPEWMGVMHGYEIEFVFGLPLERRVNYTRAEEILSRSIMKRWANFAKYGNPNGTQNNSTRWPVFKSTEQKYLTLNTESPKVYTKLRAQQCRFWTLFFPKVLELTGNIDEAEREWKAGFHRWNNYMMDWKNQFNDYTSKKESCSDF
T1 sequence (O42275 24-633): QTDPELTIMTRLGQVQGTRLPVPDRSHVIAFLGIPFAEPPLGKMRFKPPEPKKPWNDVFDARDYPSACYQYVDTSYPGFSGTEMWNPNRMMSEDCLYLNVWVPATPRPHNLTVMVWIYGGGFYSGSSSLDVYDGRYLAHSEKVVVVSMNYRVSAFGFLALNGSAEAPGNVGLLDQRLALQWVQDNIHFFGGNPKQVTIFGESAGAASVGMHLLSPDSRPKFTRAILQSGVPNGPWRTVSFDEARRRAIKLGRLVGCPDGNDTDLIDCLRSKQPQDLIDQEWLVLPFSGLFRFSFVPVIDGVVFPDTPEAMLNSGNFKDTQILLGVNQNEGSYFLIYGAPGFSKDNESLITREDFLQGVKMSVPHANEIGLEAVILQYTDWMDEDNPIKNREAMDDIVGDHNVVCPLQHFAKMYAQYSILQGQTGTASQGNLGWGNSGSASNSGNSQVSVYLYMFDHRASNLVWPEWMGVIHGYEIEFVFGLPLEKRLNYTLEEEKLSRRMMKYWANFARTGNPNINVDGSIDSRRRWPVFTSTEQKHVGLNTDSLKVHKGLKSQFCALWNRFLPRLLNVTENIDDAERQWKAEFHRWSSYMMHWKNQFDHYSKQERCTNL

## Cc1ccccc1NS(=O)(=O)c1ccc(N2C(=O)c3ccccc3C2=O)cc1 [Compound 1, 4-(1,3-Dioxoisoindolin-2-yl)-N-(o-tolyl)benzenesulfonamide]
[1]
  IC50: 6.84 ± 0.17 µM
[2]
  IC50: 74.4 ± 2.34 µM

## COc1ccccc1NS(=O)(=O)c1ccc(N2C(=O)c3ccccc3C2=O)cc1 [Compound 2, 4-(1,3-Dioxoisoindolin-2-yl)-N-(2-methoxyphenyl)benzenesulfonamide]
[1]
  IC50: 6.79 ± 0.41 µM
[2]
  IC50: 44.2 ± 13.4 µM

## CC(C)c1ccccc1NS(=O)(=O)c1ccc(N2C(=O)c3ccccc3C2=O)cc1 [Compound 3, 4-(1,3-Dioxoisoindolin-2-yl)-N-(2-isopropylphenyl)benzenesulfonamide]
[1]
  IC50: 8.19 ± 0.13 µM
[2]
  IC50: 13.4 ± 0.62 µM

## Cc1ccc(NS(=O)(=O)c2ccc(N3C(=O)c4ccccc4C3=O)cc2)cc1 [Compound 4, 4-(1,3-Dioxoisoindolin-2-yl)-N-(p-tolyl)benzenesulfonamide]
[1]
  IC50: 8.61 ± 0.18 µM
[2]
  IC50: 85 ± 13.7 µM

## COc1ccc(NS(=O)(=O)c2ccc(N3C(=O)c4ccccc4C3=O)cc2)cc1 [Compound 5, 4-(1,3-Dioxoisoindolin-2-yl)-N-(4-methoxyphenyl)benzenesulfonamide]
[1]
  IC50: 8.52 ± 0.18 µM
[2]
  IC50: 87.2 ± 13.2 µM

## O=C1c2ccccc2C(=O)N1c1ccc(S(=O)(=O)Nc2ccc(Cl)cc2)cc1 [Compound 6, 4-(1,3-Dioxoisoindolin-2-yl)-N-(4-chlorophenyl)benzenesulfonamide]
[1]
  IC50: 8.21 ± 0.14 µM
[2]
  IC50: 78.1 ± 5.39 µM

## CCN(CC)S(=O)(=O)c1ccc(N2C(=O)c3ccccc3C2=O)cc1 [Compound 7, 4-(1,3-Dioxoisoindolin-2-yl)-N,N-diethylbenzenesulfonamide]
[1]
  IC50: 1.35 ± 0.08 µM
[2]
  IC50: > 100 µM

## O=C1c2ccccc2C(=O)N1c1ccc(S(=O)(=O)N2CCCC2)cc1 [Compound 8, 2-(4-(Pyrrolidin-1-ylsulfonyl)phenyl)isoindoline-1,3-dione]
[1]
  IC50: > 100 µM
[2]
  IC50: > 100 µM

## O=C1c2ccccc2C(=O)N1c1ccc(S(=O)(=O)N2CCCCC2)cc1 [Compound 9, 2-(4-(Piperidin-1-ylsulfonyl)phenyl)isoindoline-1,3-dione]
[1]
  IC50: 10.4 ± 0.61 µM
[2]
  IC50: > 100 µM

## CC1CCCCN1S(=O)(=O)c1ccc(N2C(=O)c3ccccc3C2=O)cc1 (stereo not shown) [Compound 10, 2-(4-((2-Methylpiperidin-1-yl)sulfonyl)phenyl)isoindoline-1,3-dione]
[1]
  IC50: 8.05 ± 0.54 µM
[2]
  IC50: 75.2 ± 23.8 µM

## O=C1c2ccccc2C(=O)N1c1ccc(S(=O)(=O)N2CCOCC2)cc1 [Compound 11, 2-(4-(Morpholinosulfonyl)phenyl)isoindoline-1,3-dione]
[1]
  IC50: 7.95 ± 0.22 µM
[2]
  IC50: 56.7 ± 3.26 µM
